According to patent EP1112066B1, “USE OF METHOXYMORPHOLINO DOXORUBICIN FOR THE TREATMENT OF A LIVER TUMOR” (Pharmacia Italia S.p.A., priority 1998, dated 2000):
Structures can show the parent of a compound that is named as a salt. Where two headings read alike, the source gives them in different places.

Key:
[1] = system: HCC; assay: Phase I dose-finding study of MMDX via the hepatic artery (IHA): antitumor activity in liver; assay type: in vivo, human
Protocol: (§1) A single arm, multicentre, dose-finding Phase I study of MMDX (PNU 152243) administered as a brief infusion of 30 minutes every 4 weeks via the hepatic artery (IHA) to adult patients either with hepatic metastatic colorectal cancer who have progressed after receiving intravenous chemotherapy or intrahepatic 5-fluoruracil chemotherapy, or with previously untreated primary hepatocellular carcinoma or cholangiocarcinoma involving the liver was carried out. Their disease was confined to the liver, at the time of trial entry.
Antitumor activity was documented in this study.
(§2) On a total of 23 registered patients, 18 received intra hepatic artery (IHA) administration of MMDX.
(§3) Doses tested ranged from 100 mcg/m^2 to 800 mcg/m^2.
(§4) Results are available on 13 patients: 3 patients (6 cycles) at 100 mcg/m^2, 3 patients (12 cycles) at 200mcg/m^2, 3 patients (4 cycles) at 400 mcg/m^2, 3 patients (10 cycles) at 600 mcg/m^2 and 1 patient (3 cycles) at 800 mcg/m^2.

[2] = system: murine leukemias, solid murine and human tumor models; assay: In vivo antitumor potency, optimal i.v. dose
[3] = system: panel of different tumor types; assay: Oral antitumor efficacy in a panel of tumor types; assay type: in vivo
Source text: (§5) The high lipophilicity of the molecule, which confers to the compound the ability to reach high intracellular concentrations and is most likely one of the reasons of its efficacy on resistant models, makes it effective also after oral administration. The oral antitumor efficacy of MMDX has been examined in a panel of different tumor types with various schedules of administration. […] In these models, the effective oral doses of MMDX are 1.3-2 fold higher than the effective i.v. doses. […] This might be a reflection of a different behaviour of the drug, due to first pass effect to the liver.

[4] = Lipophilicity
[5] = Phase I dose-finding study of MMDX via the hepatic artery (IHA): toxicity; assay type: in vivo, human; conditions: for thrombocytopenia (grade): considered tumor related (HCC patient); for anemia (max. grade): one patient
Protocol: as §1
The primary goal of this study was the determination of Maximal Tolerated Dose (MTD) and Dose-Limiting Toxicities (DLTs)of MMDX when administered via the hepatic artery.
(§6) The starting dose was 100 mcg/m^2,corresponding to one third of the LD10 in rats.
as §2, §3, §4

[6] = system: liver metastases from M5076 murine fibrosarcoma; assay: Liver metastases from M5076 murine tumor; assay type: in vivo
Source text: as §5
(§7) Strong evidence of antitumor efficacy in liver is also supported by preclinical data. […] This specific effect on liver metastases is probably due to metabolite(s) produced by liver enzymes. This hypothesis is reinforced by several results showing MMDX being activated in vitro by liver microsomes to a highly cytotoxic product. This metabolic conversion is believed to occur also in humans.

[7] = Cytotoxic activity in vitro in the presence of liver microsomes; assay type: cell-based; conditions: mouse, rat and human liver microsomes
Source text: as §7

[8] = system: liver metastases; assay: Phase I and phase Ib studies by intravenous route: response in liver and toxicity; assay type: in vivo, human; conditions: i.v.
Source text: The expectation that MMDX is effective in liver neoplasms comes from the findings of phase I and phase Ib studies conducted by intravenous route, where, out of 30 patients evaluable for response in liver, 5 experienced regressions of liver metastases. […] Tumor shrinkage occurred at doses of 1250 and 1500 mcg/m^2 i.v..

[9] = system: liver metastases; assay: Phase II study by i.v. route in breast cancer patients with liver metastases; assay type: in vivo, human; conditions: 1500 mcg/m^2 i.v., six patients treated
[10] = Lethal dose (LD10) in rats; assay type: in vivo
Source text: as §6

[11] = system: tumor cells resistant to anthracyclines and presenting the mdr phenotype; assay: Activity in vitro and in vivo on resistant tumor cells
Source text: MMDX is active in vitro and in vivo on tumor cells resistant to anthracyclines and presenting the mdr phenotype, this last mechanism being recognized to occur also in man.
A well known pathway of the metabolic transformation of the antitumor anthracyclines in mammals is the side-chain carbonyl group reduction, giving the corresponding 13-dihydro derivative.

[12] = system: metastatic colorectal cancer; conditions: cited from earlier work
[13] = system: liver metastases; conditions: hepatic arterial infusion; no substantial effect on survival; cited from earlier work
[14] = 400 mcg/m^2 IHA, one patient (1 cycle)
[15] = 600 mcg/m^2 IHA, 1 patient (2 cycles)
[16] = 800 mcg/m^2 IHA, 1 patient (1 cycle)
[17] = systemic, metastatic colorectal cancer
[18] = after failure of 5-FU leucovorin

COc1cccc2c1C(=O)c1c(O)c3c(c(O)c1C2=O)C[C@@](O)(C(=O)CO)C[C@@H]3O[C@H]1C[C@H](N2CCO[C@H](OC)C2)[C@H](O)[C@H](C)O1 [MMDX, Methoxymorpholino doxorubicin]
reduction of measurable liver disease (NMR, overall 17.75 cm^2 at entry) ([1]; 200 mcg/m^2 IHA, first HCC patient, after 2 IHA cycles): more than 86%
tumor response ([1]; 200 mcg/m^2 IHA, first HCC patient, after 2 IHA cycles, confirmed after the fourth): Partial Response (PR)
tumor response ([1]; 200 mcg/m^2 IHA, first HCC patient, after the sixth IHA cycle): Complete Response (CR)
number of objective tumor responses in liver ([1]; 200 mcg/m^2 IHA, patients with HCC): Two
decrease of the bigger lesion in diameter (6 cm at baseline, Ctscan) ([1]; 200 mcg/m^2 IHA, second HCC patient, after the third IHA cycle): 50%
tumor response ([1]; 800 mcg/m^2 IHA, third HCC patient, after 3 cycles): minor response
antitumor activity ([2]; after i.p., i.v. or oral administration, murine leukemias, solid murine and human tumor models): good antitumor activity
optimal i.v. dose, fold less than that of doxorubicin ([2]; in vivo, i.v.): at least 80 fold
oral antitumor activity compared to intravenous (i.v.) administration ([3]; all animal models examined, various schedules): comparable
effective oral doses, fold higher than the effective i.v. doses ([3]; animal models): 1.3-2 fold
lipophilicity [4]: high
leucopenia (grade) ([5]; 100 mcg/m^2 IHA, 1 patient (1 cycle)): 1
fatigue (grade) ([5]; 100 mcg/m^2 IHA, 2 patients (3 cycles)): 1-2
vomiting ([5]; 100 mcg/m^2 IHA, one out of three patients (1 cycle)): mild
leucopenia (grade) ([5]; 200 mcg/m^2 IHA, 1 patient (1 cycle)): 1
fatigue (grade) ([5]; 200 mcg/m^2 IHA, 1 patient (2 cycles)): 2
thrombocytopenia (grade) ([5]; 200 mcg/m^2 IHA, 1 patient (3 cycles)): 1-2
increase in transaminases (grade), attributable to the study drug ([5]; 200 mcg/m^2 IHA, 2/3 patients): 1-2
nausea (grade) ([5]; 200 mcg/m^2 IHA, 2 patients (2 cycles)): 2
vomiting (grade) ([5]; 200 mcg/m^2 IHA, 2 patients (3 cycles)): 1-2
anemia (max. grade) ([5]; 200 mcg/m^2 IHA): ≤ 1
hyperglycemia (grade) ([5]; 200 mcg/m^2 IHA, two patients (one diabetic, persisting from baseline; one post prandial)): 3
leucopenia (grade) ([5]; 400 mcg/m^2 IHA, 1 patient (1 cycle)): 1
increase in transaminases (grade), attributable to the study drug ([5]; 400 mcg/m^2 IHA, 2/3 patients): 1-2
nausea (grade) ([5]; 400 mcg/m^2 IHA, 2 patients (2 cycles)): 2-3
alopecia [5, 14]: mild
local pain at porth-a-cath site [5, 14]: Mild
vomiting (grade) [5, 14]: 2
transaminase elevation (grade) ([5]; 400 mcg/m^2 IHA, third patient, probably due to the IHA technology applied): 2-3
thrombocytopenia (grade) ([5]; 600 mcg/m^2 IHA, 1 patient (1 cycle)): 1-2
alopecia [5, 15]: mild
fatigue (grade) [5, 15]: 2
increase in transaminases (grade), attributable to the study drug ([5]; 600 mcg/m^2 IHA, 2 out of 3 patients): 1-2
nausea (grade) ([5]; 600 mcg/m^2 IHA, 2 patients (2 cycles)): 1-2
anemia (max. grade) ([5]; 600 mcg/m^2 IHA): ≤ 1
fatigue (grade) [5, 16]: 1
fever (grade) [5, 16]: 1
mucositis (grade) [5, 16]: 1
nausea (grade) [5, 16]: 1
anemia (max. grade) ([5]; 800 mcg/m^2 IHA): ≤ 1
transaminase elevation (grade) ([5]; 800 mcg/m^2 IHA, the one patient treated): 3
time of maximum transaminases elevation ([5]; IHA): during the first week after treatment
most frequently observed adverse events attributable to the study drug ([5]; IHA, 100-800 mcg/m^2): nausea, vomiting and fatigue
other grade 3-4 non-hematological events ([5]; IHA, 100-800 mcg/m^2): No other grade 3-4 events
AGC ([5]; IHA, all doses reported): always normal
bilirubinemia increases (grade) ([5]; IHA, starting from 100 mcg/m^2, not considered due to the study drug): 2
efficacy on the liver metastases versus the solid primary ([6]; administered orally, same M5076 model): more effective on the liver metastases than on the solid primary
efficacy relative to the oral formulation ([6]; injectable formulation): less effective
survival time (best result) ([6]; oral formulation, daily for 5 days): doubling of survival time
cytotoxic activity in the presence of liver microsomes [7]: increased
main toxicities ([8]; phase I and Ib): nausea and vomiting (requiring intravenous antiemetic treatment), myelosuppression and transient elevations in transaminases
liver finding at autopsy ([8]; additional patient with colorectal cancer and multiple liver metastases at entry, after the first cycle): no evidence of liver metastases
number of patients with regressions of liver metastases ([8]; out of 30 patients evaluable for response in liver, shrinkage at 1250 and 1500 mcg/m^2): 5
regression of liver lesions ([8]; two patients with colorectal cancer, after 3 cycles): < 50%
regression in liver lesions ([8]; two patients with renal cancer, after 3 cycles): greater than 50%
number of complete responses in liver lesions [9]: 1
number of minor responses in liver lesions [9]: 1
number of partial responses in liver lesions ([9]; one not confirmed four weeks apart): 3
one third of the LD10 in rats [10]: 100 mcg/m^2
activity on tumor cells resistant to anthracyclines (mdr phenotype) ([11]; in vitro and in vivo): active
cross-resistance ([11]; tumor cells resistant to L-PAM or cDDP, or to Topoisomerase II inhibitors (at-mdr)): No cross-resistance

5-fluoruracil (5-FU) plus folinic acid
overall survival [12, 17]: around 12 months
response rate [12, 17]: 20%

COc1cccc2c1C(=O)c1c(O)c3c(c(O)c1C2=O)CC(O)(C(O)CO)CC3OC1CC(N2CCOC(OC)C2)C(O)C(C)O1 (stereo not drawn) [reduced derivative of MMDX]
active doses, fold higher as compared to the parent drug ([11]; doxorubicin-resistant models, in vitro and in vivo): 10 fold
activity against doxorubicin-resistant models ([11]; in vitro and in vivo): maintains activity

CCc1c2c(nc3ccc(OC(=O)N4CCC(N5CCCCC5)CC4)cc13)-c1cc3c(c(=O)n1C2)COC(=O)[C@]3(O)CC [Irinotecan hydrochloride trihydrate]
median survival time [12, 18]: approximately 9 months
response rate [12, 18]: 15%

O=c1[nH]c(=O)n([C@H]2C[C@H](O)[C@@H](CO)O2)cc1F [FUDR, 5-fluorodeoxyuridine]
response rate [13]: up to 50%

O=c1[nH]cc(F)c(=O)[nH]1 [5-FU, 5-fluoruracil]
response rate [13]: up to 50%
